Test results published in BigSolDB 2.1.

COc1cc(/C=C/c2ccc(O)cc2)cc(OC)c1
Conditions	solubility (mole fraction)
in PEG-400, 298.2 K	0.346
in PEG-400, 303.2 K	0.351
in PEG-400, 308.2 K	0.358
in PEG-400, 313.2 K	0.366
in PEG-400, 318.2 K	0.373

solubility (mole fraction)
Conditions	298.2 K	303.2 K	308.2 K	313.2 K	318.2 K
in ethanol	0.113	0.117	0.124	0.129	0.136
in propylene glycol	0.25	0.26	0.272	0.281	0.29
in transcutol	0.23	0.235	0.241	0.248	0.253
in water	1.27e-06	1.62e-06	2.04e-06	2.53e-06	2.95e-06
